{"source": "ChEMBL document CHEMBL1201862", "about": "“PubChem BioAssay data set” (2004)", "assay_in_all_cases": "inhibition of tumour cell growth, NCI panel, 48 h", "key": {"Malme-3M": {"test_system": "Malme-3M"}, "HCT-116": {"test_system": "HCT-116"}, "RXF 393": {"test_system": "RXF 393"}, "A549": {"test_system": "A549"}, "RPMI-8226": {"test_system": "RPMI-8226"}, "HOP-92": {"test_system": "HOP-92"}, "LOX IMVI": {"test_system": "LOX IMVI"}, "HCT-15": {"test_system": "HCT-15"}, "BT-549": {"test_system": "BT-549"}, "SK-MEL-2": {"test_system": "SK-MEL-2"}, "UACC-257": {"test_system": "UACC-257"}, "HL-60": {"test_system": "HL-60"}, "DU-145": {"test_system": "DU-145"}, "MDA-MB-435": {"test_system": "MDA-MB-435"}, "COLO 205": {"test_system": "COLO 205"}, "SF-295": {"test_system": "SF-295"}, "HOP-62": {"test_system": "HOP-62"}, "ACHN": {"test_system": "ACHN"}, "SN12C": {"test_system": "SN12C"}, "TK-10": {"test_system": "TK-10"}, "PC-3": {"test_system": "PC-3"}, "HT-29": {"test_system": "HT-29"}, "M14": {"test_system": "M14"}, "NCI/ADR-RES": {"test_system": "NCI/ADR-RES"}, "A498": {"test_system": "A498"}, "SR": {"test_system": "SR"}, "NCI-H23": {"test_system": "NCI-H23"}, "SW-620": {"test_system": "SW-620"}, "IGROV-1": {"test_system": "IGROV-1"}, "OVCAR-5": {"test_system": "OVCAR-5"}, "NCI-H226": {"test_system": "NCI-H226"}, "786-0": {"test_system": "786-0"}, "EKVX": {"test_system": "EKVX"}, "MDA-MB-231": {"test_system": "MDA-MB-231"}, "MOLT-4": {"test_system": "MOLT-4"}, "OVCAR-3": {"test_system": "OVCAR-3"}, "K562": {"test_system": "K562"}, "SK-MEL-5": {"test_system": "SK-MEL-5"}, "Hs-578T": {"test_system": "Hs-578T"}, "SK-MEL-28": {"test_system": "SK-MEL-28"}, "CAKI-1": {"test_system": "CAKI-1"}, "U-251": {"test_system": "U-251"}, "MDA-N": {"test_system": "MDA-N"}, "NCI-H522": {"test_system": "NCI-H522"}, "T47D": {"test_system": "T47D"}, "SF-539": {"test_system": "SF-539"}, "HCC 2998": {"test_system": "HCC 2998"}, "OVCAR-4": {"test_system": "OVCAR-4"}, "KM12": {"test_system": "KM12"}, "UACC-62": {"test_system": "UACC-62"}, "SNB-19": {"test_system": "SNB-19"}, "CCRF-CEM": {"test_system": "CCRF-CEM"}, "UO-31": {"test_system": "UO-31"}, "OVCAR-8": {"test_system": "OVCAR-8"}, "NCI-H460": {"test_system": "NCI-H460"}, "MCF7": {"test_system": "MCF7"}, "SF-268": {"test_system": "SF-268"}, "SK-OV-3": {"test_system": "SK-OV-3"}}, "note": "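Dose response: 5 concentrations. Exposure: 48 h. Format: 96-well plates. Endpoint: linear interpolation; highest concentration if not reached. Abbreviation: GI50, concentration required for 50% inhibition of growth.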 Calls of active or inactive are those of the source. Rule as the data show it: active = GI50 up to about 1.1 µM and inactive = higher.", "data": [{"smiles": "COc1cc(-c2c(C#N)c(N)c(C#N)c3c2COc2ccccc2-3)cc(OC)c1OC", "values": [{"measurement": "GI50", "setting": "Malme-3M", "value": "20.3 µM (inactive)"}, {"measurement": "GI50", "setting": "HCT-116", "value": "> 49.4 µM (inactive)"}, {"measurement": "GI50", "setting": "RXF 393", "value": "16.4 µM (inactive)"}, {"measurement": "GI50", "setting": "A549", "value": "> 100 µM (inactive)"}, {"measurement": "GI50", "setting": "RPMI-8226", "value": "> 22.9 µM (inactive)"}, {"measurement": "GI50", "setting": "HOP-92", "value": "16.9 µM (inactive)"}, {"measurement": "GI50", "setting": "LOX IMVI", "value": "39.2 µM (inactive)"}, {"measurement": "GI50", "setting": "HCT-15", "value": "> 100", "unit": "µM"}, {"measurement": "GI50", "setting": "BT-549", "value": "31.6 µM (inactive)"}, {"measurement": "GI50", "setting": "SK-MEL-2", "value": "22.6 µM (inactive)"}, {"measurement": "GI50", "setting": "UACC-257", "value": "> 100 µM (inactive)"}, {"measurement": "GI50", "setting": "HL-60", "value": "> 100 µM (inactive)"}, {"measurement": "GI50", "setting": "DU-145", "value": "43.4 µM (inactive)"}, {"measurement": "GI50", "setting": "MDA-MB-435", "value": "> 100 µM (inactive)"}, {"measurement": "GI50", "setting": "COLO 205", "value": "> 100 µM (inactive)"}, {"measurement": "GI50", "setting": "SF-295", "value": "24.9 µM (inactive)"}, {"measurement": "GI50", "setting": "HOP-62", "value": "7.5 µM (inactive)"}, {"measurement": "GI50", "setting": "ACHN", "value": "27.8 µM (inactive)"}, {"measurement": "GI50", "setting": "SN12C", "value": "25.9 µM (inactive)"}, {"measurement": "GI50", "setting": "TK-10", "value": "17.6 µM (inactive)"}, {"measurement": "GI50", "setting": "PC-3", "value": "> 25.6 µM (inactive)"}, {"measurement": "GI50", "setting": "HT-29", "value": "> 30.6 µM (inactive)"}, {"measurement": "GI50", "setting": "M14", "value": "> 100 µM (inactive)"}, {"measurement": "GI50", "setting": "NCI/ADR-RES", "value": "42.5 µM (inactive)"}, {"measurement": "GI50", "setting": "A498", "value": "39.3 µM (inactive)"}, {"measurement": "GI50", "setting": "SR", "value": "> 74 µM (inactive)"}, {"measurement": "GI50", "setting": "NCI-H23", "value": "31.6 µM (inactive)"}, {"measurement": "GI50", "setting": "SW-620", "value": "> 100 µM (inactive)"}, {"measurement": "GI50", "setting": "IGROV-1", "value": "26.7 µM (inactive)"}, {"measurement": "GI50", "setting": "OVCAR-5", "value": "> 100 µM (inactive)"}, {"measurement": "GI50", "setting": "NCI-H226", "value": "6.92 µM (inactive)"}, {"measurement": "GI50", "setting": "786-0", "value": "7.93 µM (inactive)"}, {"measurement": "GI50", "setting": "EKVX", "value": "25.6 µM (inactive)"}, {"measurement": "GI50", "setting": "MDA-MB-231", "value": "15.1 µM (inactive)"}, {"measurement": "GI50", "setting": "MOLT-4", "value": "> 76.9 µM (inactive)"}, {"measurement": "GI50", "setting": "OVCAR-3", "value": "> 42.8 µM (inactive)"}, {"measurement": "GI50", "setting": "K562", "value": "> 60.4 µM (inactive)"}, {"measurement": "GI50", "setting": "SK-MEL-5", "value": "> 86.3 µM (inactive)"}, {"measurement": "GI50", "setting": "Hs-578T", "value": "16.4 µM (inactive)"}, {"measurement": "GI50", "setting": "SK-MEL-28", "value": "> 100 µM (inactive)"}, {"measurement": "GI50", "setting": "CAKI-1", "value": "53.1 µM (inactive)"}, {"measurement": "GI50", "setting": "U-251", "value": "12.4 µM (inactive)"}, {"measurement": "GI50", "setting": "MDA-N", "value": "> 100 µM (inactive)"}, {"measurement": "GI50", "setting": "NCI-H522", "value": "84.1 µM (inactive)"}, {"measurement": "GI50", "setting": "T47D", "value": "> 46.9 µM (inactive)"}, {"measurement": "GI50", "setting": "SF-539", "value": "5.35 µM (inactive)"}, {"measurement": "GI50", "setting": "HCC 2998", "value": "16.6 µM (inactive)"}, {"measurement": "GI50", "setting": "OVCAR-4", "value": "> 22.8 µM (inactive)"}, {"measurement": "GI50", "setting": "KM12", "value": "> 100 µM (inactive)"}, {"measurement": "GI50", "setting": "UACC-62", "value": "30.2 µM (inactive)"}, {"measurement": "GI50", "setting": "SNB-19", "value": "13.2 µM (inactive)"}, {"measurement": "GI50", "setting": "CCRF-CEM", "value": "> 100 µM (inactive)"}, {"measurement": "GI50", "setting": "UO-31", "value": "> 35.8 µM (inactive)"}, {"measurement": "GI50", "setting": "OVCAR-8", "value": "28.6 µM (inactive)"}, {"measurement": "GI50", "setting": "NCI-H460", "value": "> 77.3 µM (inactive)"}, {"measurement": "GI50", "setting": "MCF7", "value": "> 100 µM (inactive)"}, {"measurement": "GI50", "setting": "SF-268", "value": "11.5 µM (inactive)"}, {"measurement": "GI50", "setting": "SK-OV-3", "value": "14.6 µM (inactive)"}]}]}
